Test results as given in patent US12492181B2, “Gem-disubstituted piperidine melanocortin subtype-2 receptor (MC2R) antagonists and uses thereof” (Crinetics Pharmaceuticals, Inc., priority 2019, dated 2025).

Each compound was assayed against T1, hMC2 receptor (crude hMC2R membranes from CRE-bla-CHO-K1 cells stably expressing hMC2 receptor and hMRAP accessory protein) (Homo sapiens, UniProt Q01718) (assay: hMC2 membrane binding assay ([125I]ACTH (1-39) Tyr23, SPA)). Conditions: displacement of 0.2 nM [125I]ACTH (1-39) Tyr23 from hMC2R membranes, 1.5 hours at room temperature; read-out: MC2R binding potency.
T1 construct: crude membrane fractions
T1 sequence (Q01718 whole entry): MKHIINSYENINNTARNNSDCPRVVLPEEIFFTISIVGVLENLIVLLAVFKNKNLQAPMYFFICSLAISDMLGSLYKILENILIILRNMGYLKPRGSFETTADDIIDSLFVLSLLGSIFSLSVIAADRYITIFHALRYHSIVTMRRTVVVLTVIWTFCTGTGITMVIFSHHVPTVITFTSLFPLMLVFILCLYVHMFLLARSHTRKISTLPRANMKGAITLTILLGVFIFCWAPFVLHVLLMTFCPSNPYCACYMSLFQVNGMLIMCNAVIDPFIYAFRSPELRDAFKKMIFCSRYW
T1 sequence (Q8TCY5 whole entry partner): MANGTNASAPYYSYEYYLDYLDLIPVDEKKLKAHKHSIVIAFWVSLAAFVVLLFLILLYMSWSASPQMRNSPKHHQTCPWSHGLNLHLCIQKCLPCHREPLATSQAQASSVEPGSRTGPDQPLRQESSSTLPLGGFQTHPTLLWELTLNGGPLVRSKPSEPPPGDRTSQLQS
Procedure, shortened: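 Ki values come from non-linear regression of SPA scintillation counts, with compounds displacing [125I]ACTH(1-39) Tyr23. Membranes come from CRE-bla-CHO-K1 cells stably expressing hMC2 receptor together with hMRAP. They are preincubated with WGA-coated PVT SPA beads in 50 mM HEPES pH 7.4 with 0.20% BSA, Mg2+, Ca2+ and protease inhibitors.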

First: CCOc1ncccc1-c1ccc(C2(C(=O)NC[C@@H](C)N)CCN(c3ccc(C(F)(F)F)cc3C#N)CC2)cc1 [Compound 1-4, N-[(2R)-2-aminopropyl]-1-[2-cyano-4-(trifluoromethyl)phenyl]-4-[4-(2-ethoxypyridin-3-yl)phenyl]piperidine-4-carboxamide]
Second: CCOc1ncccc1-c1ccc(C2(C(=O)NCCN)CCN(c3ccc(C(F)(F)F)cc3C#N)CC2)cn1 [Compound 1-13, N-(2-aminoethyl)-1-[2-cyano-4-(trifluoromethyl)phenyl]-4-{2′-ethoxy-[2,3′-bipyridin]-5-yl}piperidine-4-carboxamide]
The Ki of the first is higher: 10 to 100 nM for the first, under 10 nM for the second. The second binds more tightly here.

`CCOc1ncccc1-c1ccc(C2(C(=O)NC[C@@H](CO)NC)CCN(c3ccc(C(F)(F)F)cc3C#N)CC2)cn1` [Compound 1-47, 1-[2-cyano-4-(trifluoromethyl)phenyl]-4-{2′-ethoxy-[2,3′-bipyridin]-5-yl}-N-[(2S)-3-hydroxy-2-(methylamino)propyl]piperidine-4-carboxamide] and `CCOc1ncccc1-c1ccc(C2(C(=O)N[C@H]3CCNC3)CCN(c3ccc(C(F)(F)F)cc3C#N)CC2)cn1` [Compound 1-12, 1-[2-cyano-4-(trifluoromethyl)phenyl]-4-{2′-ethoxy-[2,3′-bipyridin]-5-yl}-N-[(3S)-pyrrolidin-3-yl]piperidine-4-carboxamide] cannot be ordered by Ki: under 10 nM for the first, under 10 nM for the second.

`CCOc1ncccc1-c1ccc(C2(C(=O)N[C@H]3CCN(C)C3)CCN(c3ccc(C(F)(F)F)cc3)CC2)cn1` [Compound 1-33, 4-{2′-ethoxy-[2,3′-bipyridin]-5-yl}-N-[(3S)-1-methylpyrrolidin-3-yl]-1-[4-(trifluoromethyl)phenyl]piperidine-4-carboxamide] and `CCOc1ncccc1-c1ccc(C2(NC(=O)[C@H]3CCN(C)C3)CCN(c3ccc(C(F)(F)F)cc3C#N)CC2)cn1` [Compound 2-9, (3S)—N-{1-[2-cyano-4-(trifluoromethyl)phenyl]-4-{2′-ethoxy-[2,3′-bipyridin]-5-yl}piperidin-4-yl}-1-methylpyrrolidine-3-carboxamide] cannot be ordered by Ki: under 10 nM for the first, under 10 nM for the second.

First: COc1ccccc1-c1ccc(C2(C(=O)NC3CN(C)C3)CCN(c3ccc(C(F)(F)F)cc3C#N)CC2)cn1 [Compound 1-94, 1-[2-cyano-4-(trifluoromethyl)phenyl]-4-[6-(2-methoxyphenyl)pyridin-3-yl]-N-(1-methylazetidin-3-yl)piperidine-4-carboxamide]
Second: COc1ccccc1-c1ccc(C2(C(=O)NC[C@@H]3CN(C)CCO3)CCN(c3ccc(C(F)(F)F)cc3C#N)CC2)cn1 [Compound 1-330, 1-[2-cyano-4-(trifluoromethyl)phenyl]-4-[6-(2-methoxyphenyl)pyridin-3-yl]-N-{[(2R)-4-methylmorpholin-2-yl]methyl}piperidine-4-carboxamide]
The Ki of the first is lower: under 10 nM for the first, 10 to 100 nM for the second.

`CCOc1ncccc1-c1ncc(C2(C(=O)NCCN(C)C)CCN(c3ccc(C(F)(F)F)cc3C#N)CC2)cc1F` [Compound 1-308, 1-[2-cyano-4-(trifluoromethyl)phenyl]-N-[2-(dimethylamino)ethyl]-4-{2′-ethoxy-3-fluoro-[2,3′-bipyridin]-5-yl}piperidine-4-carboxamide] and `CCOc1ccccc1-c1ncc(C2(C(=O)NCCNC)CCN(c3ccc(C(F)(F)F)cc3F)CC2)cc1F` [Compound 1-290, 4-[6-(2-ethoxyphenyl)-5-fluoropyridin-3-yl]-1-[2-fluoro-4-(trifluoromethyl)phenyl]-N-[2-(methylamino)ethyl]piperidine-4-carboxamide] cannot be ordered by Ki: under 10 nM for the first, under 10 nM for the second.

`Cc1ccc(F)cc1-c1ccc(C2(C(=O)N[C@@H]3CCN(C)C3)CCN(c3ccc(C(F)(F)F)cc3C#N)CC2)cn1` [Compound 1-99, 1-[2-cyano-4-(trifluoromethyl)phenyl]-4-[6-(5-fluoro-2-methylphenyl)pyridin-3-yl]-N-[(3R)-1-methylpyrrolidin-3-yl]piperidine-4-carboxamide] and `COc1ccc(F)cc1-c1ccc(C2(C(=O)N[C@@H]3CCN(C)C3)CCN(c3ccc(C(F)(F)F)cc3C#N)CC2)cn1` [Compound 1-81, 1-[2-cyano-4-(trifluoromethyl)phenyl]-4-[6-(5-fluoro-2-methoxyphenyl)pyridin-3-yl]-N-[(3R)-1-methylpyrrolidin-3-yl]piperidine-4-carboxamide] cannot be ordered by Ki: under 10 nM for the first, under 10 nM for the second.

`COc1ccccc1-c1ncc(C2(C(=O)N[C@H]3CCN(C)C3)CCN(c3ccc(C(F)(F)F)nc3C#N)CC2)cc1F` [Compound 1-128, 1-[2-cyano-6-(trifluoromethyl)pyridin-3-yl]-4-[5-fluoro-6-(2-methoxyphenyl)pyridin-3-yl]-N-[(3S)-1-methylpyrrolidin-3-yl]piperidine-4-carboxamide] and `COc1ccc(F)cc1-c1ccc(C2(C(=O)N[C@H]3CCN(C)C3)CCN(c3ccc(C(F)(F)F)cc3Cl)CC2)cn1` [Compound 1-155, 1-[2-chloro-4-(trifluoromethyl)phenyl]-4-[6-(5-fluoro-2-methoxyphenyl)pyridin-3-yl]-N-[(3S)-1-methylpyrrolidin-3-yl]piperidine-4-carboxamide] cannot be ordered by Ki: under 10 nM for the first, under 10 nM for the second.

`CNC[C@H](C)NC(=O)C1(c2ccc(-c3cccn3C)nc2)CCN(c2ccc(C(F)(F)F)cc2C#N)CC1` [Compound 1-316, 1-[2-cyano-4-(trifluoromethyl)phenyl]-4-[6-(1-methyl-1H-pyrrol-2-yl)pyridin-3-yl]-N-[(2S)-1-(methylamino)propan-2-yl]piperidine-4-carboxamide] and `CN1C[C@H](NC(=O)C2(c3ccc(-c4cccn4C)nc3)CCN(c3ccc(C(F)(F)F)cc3C#N)CC2)[C@@H](O)C1` [Compound 1-270, 1-[2-cyano-4-(trifluoromethyl)phenyl]-N-[(3S,4S)-4-hydroxy-1-methylpyrrolidin-3-yl]-4-[6-(1-methyl-1H-pyrrol-2-yl)pyridin-3-yl]piperidine-4-carboxamide] cannot be ordered by Ki: under 10 nM for the first, under 10 nM for the second.

`CCCc1ccccc1-c1ccc(C2(C(=O)N[C@@H]3CCN(C)C3)CCN(c3ccc(C(F)(F)F)cc3C#N)CC2)cn1` [Compound 1-117, 1-[2-cyano-4-(trifluoromethyl)phenyl]-N-[(3R)-1-methylpyrrolidin-3-yl]-4-[6-(2-propylphenyl)pyridin-3-yl]piperidine-4-carboxamide] and `CCOc1ccccc1-c1ccc(C2(C(=O)N[C@H]3CCN(C)C3)CCN(c3c(F)cc(Cl)cc3C#N)CC2)cn1` [Compound 1-111, 1-(4-chloro-2-cyano-6-fluorophenyl)-4-[6-(2-ethoxyphenyl)pyridin-3-yl]-N-[(3S)-1-methylpyrrolidin-3-yl]piperidine-4-carboxamide] cannot be ordered by Ki: under 10 nM for the first, under 10 nM for the second.

`CNCCNC(=O)C1(c2ccc(-c3cccnc3OC)nc2)CCN(c2ccc(C(F)(F)F)cc2Cl)CC1` [Compound 1-274, 1-[2-chloro-4-(trifluoromethyl)phenyl]-4-{2′-methoxy-[2,3′-bipyridin]-5-yl}-N-[2-(methylamino)ethyl]piperidine-4-carboxamide] and `CN1CC[C@@H](OC(=O)NC2(c3ccc(-c4cccn4C)nc3)CCN(c3ccc(C(F)(F)F)cc3C#N)CC2)C1` [Compound 2-41, (3R)-1-methylpyrrolidin-3-yl N-{1-[2-cyano-4-(trifluoromethyl)phenyl]-4-[6-(1-methyl-1H-pyrrol-2-yl)pyridin-3-yl]piperidin-4-yl}carbamate] cannot be ordered by Ki: under 10 nM for the first, under 10 nM for the second.
